One assay relates to Laminaria. As to the kind of experiment: Sensitivity of Laminaria to antibiotics/herbicide (selectable reagents). In kind it is in vivo. Conditions: qualitative ranking.
The next assay concerns Undaria. As to the kind of experiment: Sensitivity of Undaria to antibiotics/herbicide (selectable reagents). In kind it is in vivo. Conditions: qualitative ranking.

Turning to `O=C(N[C@H](CO)[C@H](O)c1ccc([N+](=O)[O-])cc1)C(Cl)Cl` [chloramphenicol], the “sensitivity of the seaweed to the antibiotic or herbicide” value in the assay with Laminaria and in the assay with Undaria was “sensitive” each time.

The record behind these values is patent US7663026B2, “Transformation of seaweed utilizing biolistic gene transfer to spores” (Institute of Oceanology Chinese Academy of Sciences, priority 2003, dated 2010).
